Experimental data reported in publication PMC10471458 (BMB Reports, 2023).

Biological target: T1, Glutathione S-transferase omega 1 (mGstO1) (Mus musculus, UniProt O09131)
T1 sequence (O09131 2-240): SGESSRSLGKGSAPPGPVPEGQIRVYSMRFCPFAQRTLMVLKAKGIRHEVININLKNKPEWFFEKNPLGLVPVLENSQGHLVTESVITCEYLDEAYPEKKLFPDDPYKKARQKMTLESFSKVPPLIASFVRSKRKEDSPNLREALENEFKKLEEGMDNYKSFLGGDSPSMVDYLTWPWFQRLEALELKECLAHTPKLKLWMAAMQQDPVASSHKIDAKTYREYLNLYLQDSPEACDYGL
Type: biochemical

N[C@@H](CCC(=O)N[C@@H](CSCC(=O)c1ccc([N+](=O)[O-])cc1)C(=O)NCC(=O)O)C(=O)O [4-NPG, 4-nitrophenacyl glutathione]
spectrophotometric assay at 305 nm of 4-NPG reduction to 4-nitroacetophenone by: 10 U/mg
